The results in this text go back to BindingDB's records for doi:10.1016/j.bmcl.2008.03.079 (Columbia University, 2008).

The assay concerns the target T1, Tyrosine-protein phosphatase non-receptor type 22 (Homo sapiens, UniProt Q9Y2R2).
T1 sequence (Q9Y2R2 whole entry): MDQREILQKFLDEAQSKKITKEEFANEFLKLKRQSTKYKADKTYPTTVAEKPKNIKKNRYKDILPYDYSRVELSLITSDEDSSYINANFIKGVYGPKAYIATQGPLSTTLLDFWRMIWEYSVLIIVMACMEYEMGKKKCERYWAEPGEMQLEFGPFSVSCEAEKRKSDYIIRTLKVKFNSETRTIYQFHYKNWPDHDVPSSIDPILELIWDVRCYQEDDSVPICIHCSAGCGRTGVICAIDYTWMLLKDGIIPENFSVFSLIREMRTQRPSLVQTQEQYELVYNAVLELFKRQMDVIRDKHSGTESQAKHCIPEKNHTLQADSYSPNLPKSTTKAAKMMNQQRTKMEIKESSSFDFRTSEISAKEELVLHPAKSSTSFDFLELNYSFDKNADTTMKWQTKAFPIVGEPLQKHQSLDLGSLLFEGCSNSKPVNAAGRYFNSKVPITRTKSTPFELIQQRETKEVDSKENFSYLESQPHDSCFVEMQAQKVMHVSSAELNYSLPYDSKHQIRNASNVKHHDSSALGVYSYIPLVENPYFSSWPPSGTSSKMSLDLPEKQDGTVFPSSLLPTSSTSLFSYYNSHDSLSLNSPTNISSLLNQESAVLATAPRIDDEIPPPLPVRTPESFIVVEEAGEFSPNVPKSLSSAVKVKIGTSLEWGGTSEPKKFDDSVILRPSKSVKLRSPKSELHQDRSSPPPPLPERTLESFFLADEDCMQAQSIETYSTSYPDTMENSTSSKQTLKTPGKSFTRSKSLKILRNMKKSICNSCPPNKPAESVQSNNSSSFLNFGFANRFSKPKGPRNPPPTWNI
Put plainly: Inhibition of lymphoid specific tyrosine phosphatase.

Turning to `O=C(O)Cn1c(O)cn(N=Cc2ccc(-c3ccc(O)c(C(=O)O)c3)s2)c1=O`, the IC50 was more than 44 µM. For `COC(=O)c1cc(-c2ccc(C=Nn3cc(O)[nH]c3=O)o2)ccc1O` the value was more than 44 µM. As for `COC(=O)c1cc(-c2ccc(C=Nn3cc(O)[nH]c3=O)s2)ccc1O`, the figure is more than 44 µM; as for `O=C(O)c1cc(-c2ccc(C=Nn3cc(O)[nH]c3=O)o2)ccc1O`, more than 44 µM.

By IC50 is commonly meant the concentration needed to halve the response being measured. High values mean lower potency, low ones higher potency.
